Data as given in BindingDB's records for patent US20240018122 (Chiesi Farmaceutici, 2024).

Target: T1, TGF-beta receptor type-1 (Homo sapiens, UniProt P36897)
T1 sequence (P36897 whole entry): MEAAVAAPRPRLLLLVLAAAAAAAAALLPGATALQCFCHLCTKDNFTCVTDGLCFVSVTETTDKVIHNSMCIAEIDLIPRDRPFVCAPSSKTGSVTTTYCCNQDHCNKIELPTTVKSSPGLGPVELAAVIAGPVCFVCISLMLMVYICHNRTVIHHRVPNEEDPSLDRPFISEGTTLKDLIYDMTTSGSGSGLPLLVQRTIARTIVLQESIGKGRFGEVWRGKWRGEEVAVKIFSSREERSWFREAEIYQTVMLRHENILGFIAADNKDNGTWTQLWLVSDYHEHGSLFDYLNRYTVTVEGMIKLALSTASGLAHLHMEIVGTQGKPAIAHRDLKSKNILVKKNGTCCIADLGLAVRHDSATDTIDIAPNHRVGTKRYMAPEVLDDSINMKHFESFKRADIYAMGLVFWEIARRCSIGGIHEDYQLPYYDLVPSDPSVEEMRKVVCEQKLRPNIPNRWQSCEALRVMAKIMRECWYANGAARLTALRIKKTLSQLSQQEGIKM
Assay: In vitro Assay
Method: The enzymatic activity of compounds of the present invention was monitored measuring the formation of ADP using the ADP-GLO Kinases assay. Following the incubation of the purified enzyme, a substrate and ATP, the produced ADP was converted into ATP, which in turn was converted into light by Ultra-Glo Luciferase. The luminescent signal positively correlated with ADP amount and kinase activity.

Structure (SMILES) | IC50 [nM]
Cc1nnc(-c2cc(Cl)ccc2F)cc1Nc1ccnc(NC(=O)C2CC2)c1 [US20240018122, Example 15] | < 1
CN1CCN(CCN(C)C(=O)c2cc3c(Nc4cnnc(-c5cc(Cl)ccc5F)c4)ccnc3[nH]2)CC1 [US20240018122, Example 40] | < 1
Cc1nnc(-c2cc(Cl)ccc2F)cc1Nc1ccnc(NC(=O)CCN2CCN(CCS(C)(=O)=O)CC2)c1 [US20240018122, Example 83] | < 1
OCCC(CCO)N1CCN(CCOc2ccc3c(Nc4cnnc(-c5cc(Cl)ccc5F)c4)ccnc3c2)CC1 [US20240018122, Example 86] | < 1
Cc1nnc(-c2cc(Cl)ccc2F)cc1Nc1ccnc(NC(=O)CCN2CCNC(C(=O)O)C2)c1 (configuration not stated) [US20240018122, Example 92] | < 1
Cc1nnc(-c2cc(Cl)ccc2F)cc1Nc1ccnc(NC(=O)CCN2CC[N+](C)(C)CC2)c1 [US20240018122, Example 110] | < 1
Cc1nnc(-c2cc(Cl)ccc2F)cc1Nc1ccnc(NC(=O)NCC2CCN(C)CC2)c1 [US20240018122, Example 142] | < 1
